According to publication PMC12916490 (Molecular Psychiatry, 2025):

Tests used:
C57BL/6 J mice [1] = assay: Head-twitch response (HTR) dose-response in mice, 30-min session; type: in vivo, mouse; conditions: for HTR (count/30 min): mean ± SEM
Procedure: (§1) Behavioral studies were conducted as previously described with minor modifications. Male C57BL/6 J mice (The Jackson Laboratory #000664, 24 mice/drug) were purchased at 8 weeks old, group housed for acclimation (3–5 per cage for 1–2 weeks) under a 12:12 light:dark cycle (07:00 local time = lights on), with ad libitum access to food and water at the NIDA IRP facilities in Baltimore, MD, USA. All experiments were approved by the NIDA IRP Animal Care and Use Committee. After acclimation to the vivarium facilities, each mouse was briefly anesthetized with isoflurane and a temperature transponder (14 × 2 mm, model IPTT-300, Bio Medic Data Systems, Inc., Seaford, DE, USA) was implanted subcutaneously (s.c.) on the back, posterior to the shoulder blades. After the implant, mice were single housed and allowed one week recovery prior to the start of experiments. […] Drugs were randomly assigned and administered s.c. as the weight of the form used at an injection volume of 0.01 mL/g body weight.
(§2) During experimental testing, mice were tested once every 1–2 weeks to avoid potential tolerance to behavioral effects of the test drugs and were tested 2–3 times in total per drug. Each test session began with a brief 5 min acclimation period to the testing arenas, followed by recording baseline body temperature using a handheld wand that was sensitive to the signals emitted from the s.c. transponder. After this, mice were injected s.c. with appropriate doses of test drug and returned to the chambers for a 30-min test session. During the dose-response sessions, locomotor activity was continuously recorded using open field chambers with photobeam arrays (Coulbourn Instruments, Holliston, MA, USA) that were modified with cylindrical inserts and custom floor panels that also allowed video recordings of each mouse to later quantify HTR activity (GoPro Hero 7 camera; 960p resolution at 120 frames per second). Videos for each mouse were analyzed post session using commercially available software used to quantify HTR as previously described.
(§3) Data analysis was performed with Prism software (version 10.1.2, GraphPad Software, Boston, MA, USA). The IC50 values from the radioligand binding assays were determined by nonlinear regression, using three independent concentration-response curves fitted to a one-site model. The Cheng-Prusoff equation was used to calculate Kᵢ values for the competing ligands. EC50 values were determined by applying nonlinear regression to concentration-response curves. Bias factors (β) were calculated based on the relative intrinsic activity approach. More detailed information can be found in the Supplementary information. Mean values for total number of HTR, change in body temperature from pre to post session (Δ°C), and total distance traveled (cm) for each drug dose were compared (p < 0.05) via Welch’s ANOVA with Dunnett’s T3 post test, comparing all doses to respective vehicle controls (0 mg/kg). Welch’s ANOVA with Dunnett’s T3 post test was also used to compare drug concentrations, but the data were compared to DOM in this case. Dose–response relationships for HTR and locomotor activities were plotted using bell-shaped curve fits, while temperature change data were plotted using four-parameter non-linear regression curve fits. The ascending phase of the HTR curve for each drug was used to determine ED50 potency values from four parameter non-linear regression fits. For combined DOM and DOAM administration, the plasma, brain tissue, and brain dialysate drug concentrations were compared using paired t-tests (p < 0.05). Ratios were compared using Holm-Sidak’s post hoc test following a repeated-measures one-way ANOVA (F (1.709, 6.835) = 70.80; p < 0.0001).
(§4) Locomotor activity and body temperature were also assessed to monitor other pharmacological effects of the drugs that may impact the HTR. […]

C57BL/6 J mice [2] = assay: Body temperature change in mice (dose-response sessions); type: in vivo, mouse; conditions: pre to post 30-min session, mean ± SEM
Procedure: as §1, §2, §3, §4

C57BL/6 J mice [3] = assay: Locomotor activity in mice (dose-response sessions); type: in vivo, mouse; conditions: 30-min session, mean ± SEM
Procedure: as §1, §2, §3, §4

h5-HT2A = h5-HT2A (Homo sapiens, UniProt P28223); assay: biochemical; type: binding; parameters: expressed in transfected cells; host or cells: HEK 293 cells (membrane preparation)
Chain of h5-HT2A (P28223 whole entry, looked up): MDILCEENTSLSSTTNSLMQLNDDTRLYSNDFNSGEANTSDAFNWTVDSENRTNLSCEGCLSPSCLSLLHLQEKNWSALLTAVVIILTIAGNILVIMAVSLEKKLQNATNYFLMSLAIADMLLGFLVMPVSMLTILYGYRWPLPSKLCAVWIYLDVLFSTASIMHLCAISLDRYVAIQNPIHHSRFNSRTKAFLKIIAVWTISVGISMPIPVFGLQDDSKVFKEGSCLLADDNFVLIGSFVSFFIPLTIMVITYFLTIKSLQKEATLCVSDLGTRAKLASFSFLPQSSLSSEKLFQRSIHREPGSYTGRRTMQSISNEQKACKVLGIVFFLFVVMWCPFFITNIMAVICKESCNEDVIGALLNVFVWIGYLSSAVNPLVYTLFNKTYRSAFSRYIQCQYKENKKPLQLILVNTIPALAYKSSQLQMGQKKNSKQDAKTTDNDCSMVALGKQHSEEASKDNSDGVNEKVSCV

COc1cc(CC(C)N)c(OC)cc1C (centres unmarked) [DOM, 4-methyl-2,5-dimethoxyamphetamine]
HTR (count/30 min) (C57BL/6 J mice [1]; 0.03 mg/kg s.c.): 10.2 ± 1.9 count | HTR (count/30 min) (C57BL/6 J mice [1]; 0.1 mg/kg s.c.): 23.4 ± 2.1 count | HTR (count/30 min) (C57BL/6 J mice [1]; 0.3 mg/kg s.c.): 39.0 ± 3.3 count | HTR (count/30 min) (C57BL/6 J mice [1]; 1 mg/kg s.c.): 90.0 ± 4.4 count | HTR (count/30 min) (C57BL/6 J mice [1]; 3 mg/kg s.c.): 119.2 ± 9.7 count | HTR (count/30 min) (C57BL/6 J mice [1]; 10 mg/kg s.c.): 88.0 ± 18.1 count | HTR (count/30 min) (C57BL/6 J mice [1]; 30 mg/kg s.c.): 13.7 ± 3.9 count | ED50 (C57BL/6 J mice [1]; Mus musculus, sc, 0.5 h, read-out: HTR in mice ED50 (95% CI), s.c., 30 min session, ascending phase of dose-response curve): 0.66 mg/kg | Fold higher total HTR counts of DOM vs DOAM (C57BL/6 J mice [1]; mouse, in vivo): 2.6 fold | HTR in mice Emax (C57BL/6 J mice [1]; s.c., 30 min session): 119 total HTR count | HTR in mice Maximum rate (C57BL/6 J mice [1]; s.c., 30 min session): 24 HTR count/5 min | Peak HTR rate (C57BL/6 J mice [1]; s.c., 30 min session): 24 events/5 min | Time of peak HTR rate post drug administration (C57BL/6 J mice [1]; s.c., 30 min session): 5 to 10 min | ΔTemperature (C57BL/6 J mice [2]; 0.03 mg/kg s.c.): -0.1 ± 0.1 °C | ΔTemperature (C57BL/6 J mice [2]; 0.1 mg/kg s.c.): 0.0 ± 0.1 °C | ΔTemperature (C57BL/6 J mice [2]; 0.3 mg/kg s.c.): -0.1 ± 0.1 °C | ΔTemperature (C57BL/6 J mice [2]; 1 mg/kg s.c.): 0.1 ± 0.1 °C | ΔTemperature (C57BL/6 J mice [2]; 3 mg/kg s.c.): -0.2 ± 0.1 °C | ΔTemperature (C57BL/6 J mice [2]; 10 mg/kg s.c.): -2.2 ± 0.8 °C | ΔTemperature (C57BL/6 J mice [2]; 30 mg/kg s.c.): -6.5 ± 0.2 °C | Locomotor activity (distance traveled) (C57BL/6 J mice [3]; 0.03 mg/kg s.c.): 2,696 ± 154 cm | Locomotor activity (distance traveled) (C57BL/6 J mice [3]; 0.1 mg/kg s.c.): 2,522 ± 203 cm | Locomotor activity (distance traveled) (C57BL/6 J mice [3]; 0.3 mg/kg s.c.): 3,051 ± 367 cm | Locomotor activity (distance traveled) (C57BL/6 J mice [3]; 1 mg/kg s.c.): 4,272 ± 215 cm | Locomotor activity (distance traveled) (C57BL/6 J mice [3]; 3 mg/kg s.c.): 3,556 ± 278 cm | Locomotor activity (distance traveled) (C57BL/6 J mice [3]; 10 mg/kg s.c.): 2,186 ± 443 cm | Locomotor activity (distance traveled) (C57BL/6 J mice [3]; 30 mg/kg s.c.): 606 ± 47 cm | Ki (h5-HT2A): 0.066 µM

CCc1cc(OC)c(CC(C)N)cc1OC (centres unmarked) [DOET, 4-ethyl-2,5-dimethoxyamphetamine]
Ki (h5-HT2A): 0.012 µM
